Laboratory results: patent US12304920B2, “Platinum complex, its preparation and therapeutic use” (CITY UNIVERSITY OF HONG KONG, priority 2020, dated 2025)

How the values were obtained:
[1] = tested on: Human lung carcinoma A549 cells; test: MTT cytotoxicity test, A549; format: cell-based; details: 72 h, medium with 1% DMF (no DMF for 3a and 3b)
Procedure: (§1) Human ovarian A2780 and cisplatin-resistant A2780cisR cells were maintained in Roswell Park […] (RPMI) 1640 medium supported with 10% FBS, 2 mM L-glutamine, and 100 unit/mL penicillin/streptomycin. Human lung carcinoma A549 cells, cisplatin-resistant A549cisR cells, and human breast MCF-7 cells were cultured in Dulbecco's Modified Eagle Medium (DMEM) with 10% FBS and 100 units penicillin/streptomycin.
(§2) The viability of cancer cells exposed to the compounds was evaluated by means of MTT assay. Cells were seeded in 96-well plates at a density of 3,000 cells per well and incubated until the cell confluency reached 50%. Then, the medium was removed and replaced with fresh medium containing different concentrations of complexes with 1% DMF. For complex 3a and 3b with A2780, A2780CisR, A549 and A549CisR cells, the medium used for replacement contains no DMF. After 72 h, the medium was changed to serum-free medium containing 1 mg/mL MTT. After 2 h additional incubation, the medium was removed, and DMSO (200 μL) was delivered to each well to dissolve the formed purple formazan. The absorbance at 570 nm and 730 nm of each well was measured using a microplate reader (BioTek PowerWave XS).

[2] = tested on: cisplatin-resistant A2780cisR cells; test: MTT cytotoxicity test, A2780cisR; format: cell-based, Human; details: 72 h, medium with 1% DMF (no DMF for 3a and 3b)
Procedure: as §1, §2

[3] = tested on: cisplatin-resistant A549cisR cells; test: MTT cytotoxicity test, A549cisR; format: cell-based, Human; details: 72 h, medium with 1% DMF (no DMF for 3a and 3b)
Procedure: as §1, §2

[4] = tested on: Human ovarian A2780 cells; test: MTT cytotoxicity test, A2780; format: cell-based; details: 72 h, medium with 1% DMF (no DMF for 3a and 3b)
Procedure: as §1, §2

human breast MCF-7 cells = test: MTT cytotoxicity test, MCF-7; format: cell-based; details: 72 h, medium with 1% DMF
Procedure: as §1, §2

N.N.[Cl][Pt][Cl] [cisplatin, reference compound]
IC50 [1]: 2 ± 0.1 µM | IC50 [2]: 23 ± 6 µM | IC50 [3]: 12 ± 1 µM | IC50 [4]: 2.1 ± 0.6 µM | IC50 (human breast MCF-7 cells): 18 ± 3 µM

[Pt(C26H24P2)2]Cl2 [Complex 3a]
IC50 [1]: 3.6 ± 0.2 µM | IC50 [2]: 5 ± 1 µM | IC50 [3]: 1.3 ± 0.1 µM | IC50 [4]: 12 ± 3 µM | IC50 (human breast MCF-7 cells): 7 ± 1 µM

[Pt(C54H52P2)]Cl2 [Complex 3b]
IC50 [1]: 0.48 ± 0.02 µM | IC50 [2]: 2.6 ± 0.6 µM | IC50 [3]: 0.07 ± 0.01 µM | IC50 [4]: 0.23 ± 0.09 µM | IC50 (human breast MCF-7 cells): 0.2 ± 0.01 µM

t-[Pt(acetato)2(C9H17P)2] [Complex 2a]
IC50 [1]: 28 ± 3 µM | IC50 [2]: 7 ± 2 µM | IC50 [4]: 8 ± 1 µM | IC50 (human breast MCF-7 cells): 7 ± 1 µM

t-[Pt(acetato)2(C17H14NP)2] [Complex 2e]
IC50 [1]: > 11.1 µM | IC50 [2]: > 9.4 µM | IC50 [4]: > 9.4 µM | IC50 (human breast MCF-7 cells): > 9.4 µM

t-[Pt(acetato)2(C18H12Cl3P)2] [Complex 2c]
IC50 [1]: 24 ± 7 µM | IC50 [2]: 4 ± 1 µM | IC50 [4]: 4 ± 1 µM | IC50 (human breast MCF-7 cells): 18 ± 2 µM

t-[Pt(acetato)2(C18H21P)2] [Complex 2d]
IC50 [1]: > 2.7 µM | IC50 [2]: > 2.4 µM | IC50 [4]: > 2.4 µM | IC50 (human breast MCF-7 cells): > 2.4 µM

t-[Pt(acetato)2(C21H21P)2] [Complex 2b]
IC50 [1]: 6.1 ± 0.3 µM | IC50 [2]: 4 ± 1 µM | IC50 [4]: 4 ± 1 µM | IC50 (human breast MCF-7 cells): 4 ± 0.3 µM

t-[Pt(acetato)2(PPh3)2] [Complex 1a]
IC50 [1]: 3.3 ± 0.6 µM | IC50 [2]: 3.3 ± 0.8 µM | IC50 [3]: 5 ± 1 µM | IC50 [4]: 4.3 ± 0.6 µM | IC50 (human breast MCF-7 cells): 10 ± 1 µM

t-[Pt(acetato)(benzoato)(PPh3)2] [Complex 1d]
IC50 [1]: 5 ± 3 µM | IC50 [2]: 3.1 ± 0.2 µM | IC50 [3]: 5 ± 1 µM | IC50 [4]: 4.9 ± 0.6 µM

t-[Pt(phthalato)2(PPh3)2] [Complex 1c]
IC50 [1]: 7 ± 1 µM | IC50 [2]: 10 ± 2 µM | IC50 [3]: 7 ± 2 µM | IC50 [4]: 18 ± 3 µM

t-[Pt(succinato)2(PPh3)2] [Complex 1b]
IC50 [1]: 5.3 ± 0.6 µM | IC50 [2]: 13 ± 1 µM | IC50 [3]: 8 ± 5 µM | IC50 [4]: 15 ± 1 µM

t-[Pt(succinato)(benzoato)(PPh3)2] [Complex 1e]
IC50 [1]: 5 ± 0.8 µM | IC50 [2]: 7.2 ± 0.2 µM | IC50 [3]: 5 ± 2 µM | IC50 [4]: 8 ± 4 µM
